How the values were obtained:
[1] = tested on: autoimmune hemolytic anemia; conditions: cited from earlier work
Description: Previously we have shown that the impact of CD4 T cell epitope administration in the absence of adjuvant depends on peptide solubility. […] Importantly, however, addition of charged residues at the N- and C-termini of the band 3 epitope rendered it both soluble and immuno-modulatory. Unlike the insoluble 861-874 that both primed band 3 reactive inflammatory T cells and promoted generation of pathogenic ...

[2] = tested on: lymph node cells or splenocytes; assay: T cell anergy: ex vivo proliferation of lymph node cells or splenocytes after dose escalation; format: in vivo, mouse (Tg4); conditions: Tg4 mice, six escalating SC doses, cells three days after sixth dose, 3H-TdR at 72 hours
Experimental: (§1) Tg4 mice were primed with a single dose (80μg) of 4Y in PBS by SC injection. Tolerance induction involved escalating dose immunotherapy (EDI) whereby each Tg4 or tiger-Tg4 mouse was treated with 0.08, 0.8, 8, 80, 80 and 80μg 4Y in PBS by SC injection at the right-side flank every 3rd or 4th day ([20]).
Proliferation was assessed by tritiated thymidine (^3H-TdR) incorporation with either whole splenocytes or isolated APC populations and antigen-specific Tg4 responder CD4^+ T cells. Tg4 whole splenocytes were cultured in 96-well round bottom plates, 2x10^5 whole splenocytes per well, with addition of the indicated concentration of the relevant peptide. Whole splenocytes from B10.PL mice that had received CD4^+ CD45.1^+ T cells followed by CD11c^+ cells were cultured in 48–well plates at 1.25x10^6 per well. […] Levels of incorporated radioactivity were assessed from the dried filter papers, sealed in sample bags (Wallac, Milton Keynes, UK) with 3ml scintillation fluid, ^3H-TdR incorporation was measured on a 1450 MicroBeta liquid scintillation counter (Wallac).
Figure 2 Peptide solubility predicts accessibility to steady state DC and determines tolerance induction: The 4Y peptide was rendered increasingly insoluble by addition of LF motifs. […] Proliferation was measured by tritiated thymidine (^3H-TdR) incorporation at 72 hours. […]

[3] = tested on: serum IL-2; assay: Serum IL-2 after a single SC dose of peptide; format: in vivo, mouse (Tg4); conditions: Tg4 mice, single SC dose 80µg
Experimental: as §1
(§2) MFBI Th1/Th2 Flow Cytomix Multiplex kits (eBioscience) were used to measure the concentration of cytokines in the serum 2 h after s.c. treatment with soluble peptide.
(§3) Figure 3 Impact of soluble versus insoluble peptide treatment on T cell function in Tg4 mice. A single SC dose of soluble 4Y (80µg) induces rapid and high levels of IL-2 into the serum of Tg4 mice (A) when compared to insoluble 4Y-3LF (B). For the data shown in (C), Tg4 mice received a SC injection of 80µg MBP Ac1-9[4Y] or 4Y-3LF. Blood was removed from the tail vein at the specified times following injection, baseline was taken prior to peptide injection and the cellular fraction was stained for flow cytometry. Inguinal lymph node (ILN), brachial lymph node (BLN) and spleen were collected at 48–hours. Percentages of CD4^+ cells were gated on live singlets. […] (*p ≤ 0.05, **p ≤ 0.01, ***p ≤ 0.001, ****p ≤ 0.0001). […] Tg4 mice were given SC injections of PBS containing the indicated doses of 4Y peptide given every 3rd or 4th day (2 doses per week).

[4] = tested on: serum IL-10; assay: Serum IL-10 during dose escalation of SC peptide; format: in vivo, mouse (Tg4); conditions: Tg4 mice, SC dose escalation 0.08 to 80µg every 3rd or 4th day
Experimental: as §1, §2, §3

[5] = tested on: splenic CD11c+ DC; assay: In vivo APC targeting after SC peptide: ex vivo presentation to naive Tg4 CD4+ T cells; set-up: species or system mouse (B10.PL); conditions: 80µg SC, proliferation of Tg4 CD4+ T cells in vitro
Description: CD11c^+ cells were isolated from whole splenocytes in MACS buffer using the CD11c microbead positive selection kit (Miltenyi Biotec, Surrey, UK) as per the manufacturer’s instructions. Single cell suspensions were used for magnetic selection using the EasySep Mouse B Cell Isolation kit or EasySep Mouse Monocyte Enrichment kit (both Stemcell Technologies, Grenoble, France) as per the manufacturer’s instructions. In the B10.PL APC targeting experiments, single cell suspensions (without digestion) of Tg4 splenocytes were counted and T cells isolated using Magnisort® Mouse CD4 T cell isolation kit (affymetrix, eBioscience, Hatfield, UK) as per the manufacturer’s instructions. Cells were either enriched by magnetic sorting prior to fluorescence-activated cell sorting (FACS) or sorted from splenocytes. […] Peptide bound to APC was detected in vitro by activation of naïve Tg4 cells, as evidenced through ^3H.thymidine incorporation. […] Peptide bound to APC was detected in vitro by activation of CD4^+ T cells from the lymph nodes and spleen of HLA-DR3 transgenic mice immunized with the 5D peptide in CFA. T cell activation was detected by interferon gamma secretion over 3 days.
Proliferation was assessed by tritiated thymidine (^3H-TdR) incorporation with either whole splenocytes or isolated APC populations and antigen-specific Tg4 responder CD4^+ T cells. […]

[6] = tested on: Tg4 splenocytes; assay: In vitro antigenicity: proliferation of Tg4 splenocytes (3H-TdR); format: cell-based, mouse; conditions: 2x10^5 per well, 3H-TdR at d3; limiting dose 1 ng/ml
Experimental: Proliferation was assessed by tritiated thymidine (^3H-TdR) incorporation with either whole splenocytes or isolated APC populations and antigen-specific Tg4 responder CD4^+ T cells. Tg4 whole splenocytes were cultured in 96-well round bottom plates, 2x10^5 whole splenocytes per well, with addition of the indicated concentration of the relevant peptide. Whole splenocytes from B10.PL mice that had received CD4^+ CD45.1^+ T cells followed by CD11c^+ cells were cultured in 48–well plates at 1.25x10^6 per well. Isolated populations were plated out at 5x10^4/well CD4^+ T cells, with either equal numbers of CD11c^+ DC, B cells or monocytes enriched as specified. Cells were cultured at 37°C, 5% CO2. At 24 and 72 hours, supernatant was taken for cytokine analysis and medium was supplemented with 0.5µCi ^3H-TdR (GE Healthcare Lifesciences, UK) for 16 hours. Plates were frozen at –20°C in preparation for later harvesting with a Tomtec harvester onto filter papers (Cox Scientific, Kettering, UK). Levels of incorporated radioactivity were assessed from the dried filter papers, sealed in sample bags (Wallac, Milton Keynes, UK) with 3ml scintillation fluid, ^3H-TdR incorporation was measured on a 1450 MicroBeta liquid scintillation counter (Wallac).

[7] = tested on: CD4 cells; assay: Intracellular cytokine staining of spleen cells for IL-10 after dose escalation; format: in vivo, mouse (Tg4); conditions: Tg4 mice, after the final 80 µg dose of dose escalation
Experimental: as §1
Intracellular cytokine staining of splenocytes was performed after a 3-h stimulation with phorbol 12-myristate 13-acetate (5ng/ml) and ionomycin (500ng/ml) (both Sigma-Aldrich) with GolgiStop (BD Biosciences). Cells were stained with Vβ8-FITC (clone KJ16-133, diluted 1:100) or with fixable viability dye eFluor780 (1:1,000) before surface staining with CD4-Alexa700 (GK1.5, 1:100) and fixation using IC fixation buffer (all from eBioscience). Antibodies for intracellular cytokine staining were diluted in permeabilization buffer; IL-10-allophycocyanin (APC) (JES5-16E3, 1:200), IFN-γ-PerCP-Cy5.5 (XMG1.2, 1:200) (both from eBioscience). Data were collected using an LSR II flow cytometer (BD Biosciences) and analyzed using FlowJo software (Treestar).

Substance | Effect of intranasal administration in NZB mice ([1]; intranasal, no adjuvant) | Solubility of band 3 peptide ([1]; mouse, in vivo) | Ex vivo proliferation of lymph node cells or splenocytes stimulated with the Ac1-9 peptide [2] | Time of peak serum IL-2 after SC injection [3] [h] | IL-10 detectable in serum [4] | Presentation by splenic CD11c+ DC collected 2h after SC administration [5] | Antigenicity: proliferation of Tg4 splenocytes in vitro [6] | CD4 cells producing IL-10 (intracellular cytokine staining of spleen cells) [7]
861-874: insoluble peptide epitope from the red blood cell band 3 protein (FVLILTVPLRRVLL; UniProt P02730 861-874, looked up, fragment) [Peptide 861-874] | promote autoimmunity | insoluble |  |  |  |  |  | 
Ac-ASQYRPSLFLFLF-NH2 [Peptide 4Y-3LF] |  |  | partially suppressed | 8 | No IL-10 was detectable | barely detectable | significantly weaker | close to background levels

From article PMC8079784, “The Mechanism of Action of Antigen Processing Independent T Cell Epitopes Designed for Immunotherapy of Autoimmune Diseases” (Frontiers in Immunology, 2021)
